Assay results from paper PMC6268433, “New Sorafenib Derivatives: Synthesis, Antiproliferative Activity Against Tumour Cell Lines and Antimetabolic Evaluation” (Molecules, 2012).
Like-named read-outs stand apart in the source and are kept apart here.

Legend:
H 460 (lung carcinoma) = assay: Cytostatic activity, MTT assay; format: cell-based, human; settings: read-out: Tumour cell growth/IC50 H 460
Protocol: (§1) The experiments were carried out on six human tumour and one murine cell lines, which are derived from five solid tumour types and two (one murine and one human) suspension tumour cell lines. The following cell lines were used: HCT 116 (colon carcinoma), SW 620 (colon carcinoma), MCF-7 (breast carcinoma), H 460 (lung carcinoma), L1210 (murine leukemia), CEM (human lymphoma) and HeLa (cervix carcinoma). […] Compounds 3d and 3e with a benzene ring in the amide moiety, exerted a somewhat stronger (but still rather poor) cytostatic effect (IC50 ≈ 20-90 µM). […] The compounds were also equally cytostatic against primary human embryonic lung (HEL) fibroblast cells (Table 2). The obtained data clearly point to the obligatory presence of the [4-chloro-3-(trifluoromethyl)phenyl]carbamoyl group being crucial for high potency. Also, the 4a–e series of compounds are far more lipophilic than the 2 and 3 series of compounds, which may be related to their increased cytostatic potential.
(§2) HCT 116, SW 620, MCF-7, and H 460 cells were cultured as monolayers and maintained in Dulbecco’s modified Eagle medium (DMEM), supplemented with 10% fetal bovine serum (FBS), 2 mmol·L^–1 L-glutamine, 100 U·mL^–1 penicillin and 100 μg·mL^–1 streptomycin in a humidified atmosphere with 5% CO2 at 37 °C. The growth inhibition activity was assessed as described previously, according to the slightly modified procedure of the National Cancer Institute, Developmental Therapeutics Program. Briefly, the cells were seeded onto standard 96-well microtiter plates on day 0. The cell concentrations were adjusted according to the cell population doubling time (PDT): 3000 cells/well for HCT116 and SW 620 cell lines (PDT = 20–24 h) and 4,000 cells/well for MCF-7 cell lines (PDT = 33 h). Tested agents were then added in five consecutive 10-fold dilutions (10^–8 to 10^–4 mol·L^–1) and incubated for further 72 h. Working dilutions were freshly prepared on the day of testing. The solvent (DMSO) was also tested for eventual inhibitory activity by adjusting its concentration to be the same as in working concentrations (maximal concentration of DMSO was 0.25%). After 72 h of incubation, the cell growth rate was evaluated by performing the MTT assay (Promega) which detects dehydrogenase activity in viable cells. The absorbency (OD, optical density) was measured on a microplate reader at 570 nm. Each test point was performed in quadruplicate in at least three individual experiments. The results are expressed as IC50, which is the concentration necessary for 50% of inhibition. […] Each result is a mean value from three separate experiments.

[1] = tested on: HCT 116 (colon carcinoma); assay: Cytostatic activity, MTT assay; format: cell-based, human; settings: read-out: Tumour cell growth/IC50 HCT 116
Protocol: as §1, §2

MCF-7 (breast carcinoma) = assay: Cytostatic activity, MTT assay; format: cell-based, human; settings: read-out: Tumour cell growth/IC50 MCF-7
Protocol: as §1, §2

SW 620 (colon carcinoma) = assay: Cytostatic activity, MTT assay; format: cell-based, human; settings: read-out: Tumour cell growth/IC50 SW 620
Protocol: as §1, §2

CEM (human lymphoma) = assay: Cytostatic activity, Coulter counter; format: cell-based; settings: 72 h, cell number by Coulter counter, read-out: Tumour cell growth/IC50 CEM
Protocol: as §1
(§3) The cytostatic activity of the tested compounds against murine leukemia L1210, human cervix carcinoma HeLa, human embrionic lung (HEL) and T-lymphocyte CEM cells was determined with cells grown in suspension (L1210, CEM) or monolayers (HeLa, HEL) in 200 µL-wells of 96-well microtiter plates (initial cell number: 5–7.5 × 10^4 cells/well). After 48 (L1210) or 72 (CEM, HeLa, HEL) h, the tumour cell number was determined by the use of a Coulter counter.

L1210 (murine leukemia) = assay: Cytostatic activity, Coulter counter; format: cell-based; settings: 48 h, cell number by Coulter counter, read-out: Tumour cell growth/IC50 L1210
Protocol: as §1, §3

[2] = tested on: primary human embryonic lung (HEL) fibroblast cells; assay: Cytostatic activity, Coulter counter; format: cell-based; settings: 72 h, cell number by Coulter counter, primary fibroblasts
Protocol: as §1, §3

HeLa (cervix carcinoma) = assay: Cytostatic activity, Coulter counter; format: cell-based, human; settings: 72 h, cell number by Coulter counter, read-out: Tumour cell growth/IC50 HeLa
Protocol: as §1, §3

[3] = tested on: DNA synthesis in CEM cells; assay: Antimetabolic activity: [CH3-3H]dThd incorporation (DNA synthesis) in CEM cell cultures; format: cell-based; settings: Homo sapiens, CCRF-CEM, ~20 h, TCA-insoluble material
Description: (§4) A variety of compounds (2a, 3a, 4a with a cycloalkyl substituent directly attached to nitrogen atom, 2c, 3c, 4c with a cycloalkyl bound to nitrogen through a short spacer and 2e, 3e, 4e with an aromatic substituent) have been investigated on their inhibitory activity against DNA, RNA and protein synthesis in CEM cell cultures. The compounds were equally inhibitory to dThd (DNA synthesis), Urd (RNA synthesis) and Leu (protein synthesis) incorporation into TCA-insoluble cell material. The 2 series of compounds were least inhibitory whereas the 4 series were most inhibitory (IC50 in the lower micromolar range). Their antimetabolic IC50 values closely corresponded to their antiproliferative IC50 values. They also behaved as sorafenib in terms of antimetabolic potential (Table 3).
(§5) The procedures have been modified from previously described methods. Human CEM cells were seeded in 96-well microtiter plates at 10 × 10^4 cells/200 µL-well in the presence of serial dilutions of the tested compounds. Then, 0.25 µCi of [CH3-^3H]dThd (radiospecificity: 52 Ci/mmol) or 1 µCi of [5-^3H]Urd (radiospecificity: 26 Ci/mmol) or [4,5-^3H]Leu (radiospecificity: 160 Ci/mmol) were added and the drug-exposed tumour cell cultures further incubated at 37 °C for ~20 h. Then the content of each well was transfered to glass fiber discs (Wattman, GE Healthcare, Maidstone, UK), mounted on a manifold (Millipore, Billerica, MA, USA) and subsequently washed with PBS (to remove the radiolabel material that has not been incorporated in the cellular macromolecules), 10% and 5% trichoroacetic acid (TCA) (to precipitate DNA, RNA and proteins) and ethanol. Then, the radioactivity (TCA precipitate) associated with each disc was determined in a liquid scintillation counter (Packard, Palo Alto, CA, USA).

[4] = tested on: RNA synthesis in CEM cells; assay: Antimetabolic activity: [5-3H]Urd incorporation (RNA synthesis) in CEM cell cultures; format: cell-based; settings: Homo sapiens, CCRF-CEM, ~20 h, TCA-insoluble material
Description: as §4, §5

[5] = tested on: protein synthesis in CEM cells; assay: Antimetabolic activity: [4,5-3H]Leu incorporation (protein synthesis) in CEM cell cultures; format: cell-based; settings: Homo sapiens, CCRF-CEM, ~20 h, TCA-insoluble material
Description: as §4, §5

23 cell lines = tested on: 23 cell lines; set-up: method as in PMID 20672370; settings: median over 23 cell lines; cited from earlier work
CaCo-2 cell cultures = assay: Uptake at apical side and release at basolateral side of CaCo-2 cell cultures; format: in vitro ADME, human; settings: 100 µmol·L^–1 at apical side, 0-24 h, HPLC
Description: Derivatives 2a, 3a and 4a have been examined for their efficiency of uptake at the apical site and subsequent delivery at the basolateral site of colon carcinoma CaCo-2 cell cultures. This model system can be used to predict the potential of a drug to show oral bioavailability. Sorafenib was included as the reference compound. […] The molecular basis of this phenomenon is yet unclear.
Figure 1 Release of the tested compounds at the basolateral side by CaCo-2 cell cultures. Hundred micromolar concentrations of the tested compounds were added at the apical side of confluent CaCo-2 cell cultures, and the appearance of the intact tested compound at the basolateral side was measured by HPLC analysis.
Human colon carcinoma CaCo-2 cells were seeded in the inner wells of a double-chamber-well-tray at 150,000 cells (0.5 mL) per 1 mL-well. The outer wells also contain 0.5 mL medium (without cells). After the cells were grown to confluency (~2 days) at 37 °C in a humidified CO2-controlled atmosphere, 100 µmol·L^–1 tested compound (final concentration) was added to the inner well, and the medium from the outer wells was replaced by 800 µL PBS (containing 10% foetal bovine serum). At different time points (i.e., 0, 2, 4, 6, 8 and 24 h), 50 µL was removed from the outer wells and mixed with 100 µL cold methanol. The mixture was left on ice for 10 min, centrifuged to remove the precipitate, and the supernatant was analysed by HPLC (reversed phase) to determine the drug concentration that appeared in the outer wells (reflecting basolateral drug efflux) in function of time.

[6] = tested on: panel of carcinoma, lymphoma and leukemia tumour cell lines; assay: Cytostatic activity across the panel of tumour cell lines; format: cell-based; settings: Table 2; read-out: IC50 (cytostatic effect, range over cell lines)
Protocol: as §1, with “The obtained data clearly point to the obligatory presence of the [4-chloro-3-(trifluoromethyl)phenyl]carbamoyl group being crucial for high potency. Also, the 4a–e series of compounds are far more lipophilic than the 2 and 3 series of compounds, which may be related to their increased cytostatic potential.” left out
HCT 116, SW 620, MCF-7, and H 460 cells were cultured as monolayers and maintained in Dulbecco’s modified Eagle medium (DMEM), supplemented with 10% fetal bovine serum (FBS), 2 mmol·L^–1 L-glutamine, 100 U·mL^–1 penicillin and 100 μg·mL^–1 streptomycin in a humidified atmosphere with 5% CO2 at 37 °C. The growth inhibition activity was assessed as described previously, according to the slightly modified procedure of the National Cancer Institute, Developmental Therapeutics Program. […] After 72 h of incubation, the cell growth rate was evaluated by performing the MTT assay (Promega) which detects dehydrogenase activity in viable cells. The absorbency (OD, optical density) was measured on a microplate reader at 570 nm. […]

| IC50 [3] [µM] | IC50 [4] [µM] | IC50 [5] [µM] | IC50 (H 460 (lung carcinoma); Homo sapiens, NCI-H460, 72 h) [µM] | IC50 ([1]; Homo sapiens, HCT-116, 72 h) [µM] | IC50 (MCF-7 (breast carcinoma); Homo sapiens, MCF7, 72 h) [µM] | IC50 (SW 620 (colon carcinoma); Homo sapiens, SW-620, 72 h) [µM] | Compound | IC50 (CEM (human lymphoma); Homo sapiens) [µM] | IC50 (L1210 (murine leukemia); Mus musculus, L1210) [µM] | IC50 ([2]; Homo sapiens, Fibroblast) [µM] | IC50 (HeLa (cervix carcinoma); Homo sapiens, HeLa) [µM] | Drug delivery at the basolateral site compared with sorafenib (CaCo-2 cell cultures) | further results |
| --- | --- | --- | --- | --- | --- | --- | --- | --- | --- | --- | --- | --- | --- |
| 8.6 ± 1.1 | 7.1 ± 0.2 | 12 ± 7 | – | – | – | – | CNC(=O)c1cc(Oc2ccc(NC(=O)Nc3ccc(Cl)c(C(F)(F)F)c3)cc2)ccn1 [Sorafenib, 4-[4-[[4-chloro-3-(trifluoromethyl)phenyl]carbamoylamino]phenoxy]-N-methylpyridine-2-carboxamide] | – | – | – | – | – | IC50 (H 460 (lung carcinoma); 72 h): 3 ± 0.8 µM; IC50 ([1]; 72 h): 3 ± 0.8 µM; IC50 (MCF-7 (breast carcinoma); 72 h): 3 ± 0.7 µM; IC50 (SW 620 (colon carcinoma); 72 h): 6 ± 1 µM; IC50 (CEM (human lymphoma)): 3.4 ± 0.5 µM; IC50 (L1210 (murine leukemia)): 4.1 µM; IC50 [2]: 7.5 ± 0.7 µM; IC50 (HeLa (cervix carcinoma)): 3.7 ± 0.6 µM; IC50 (23 cell lines): 4.3 µM |
| > 100 | > 100 | > 100 | ≥ 100 | > 100 | > 100 | > 100 | O=C(NC1CCCC1)c1cc(Cl)ccn1 [Compound 2a, 4-Chloro-N-cyclopentylpyridine-2-carboxamide] | > 100 | > 100 | > 100 | > 100 | higher drug delivery at the basolateral site than sorafenib | – |
| 12.5 ± 6.7 | 7.7 ± 2.1 | 6.1 ± 0.7 | 1 | 3 ± 0.5 | 4 ± 1 | 2 ± 0.4 | O=C(Nc1ccc(Oc2ccnc(C(=O)NC3CCCC3)c2)cc1)Nc1ccc(Cl)c(C(F)(F)F)c1 [Compound 4a, 4-[4-[[4-Chloro-3-(trifluoromethyl)phenyl]carbamoylamino]phenoxy]-N-cyclopentyl-pyridine-2-carboxamide] | 4.2 ± 0.6 | 4.2 ± 0.8 | 2.8 | 3.1 ± 0.6 | less efficient than the reference compound | – |
| > 100 | > 100 | > 100 | > 100 | 54 ± 21 | 53 ± 40 | ≥ 100 | Nc1ccc(Oc2ccnc(C(=O)NC3CCCC3)c2)cc1 [Compound 3a, 4-(4-Aminophenoxy)-N-cyclopentylpyridine-2-carboxamide] | ≥ 100 | 121 ± 50.5 | > 100 | 77 ± 3.4 | higher drug delivery at the basolateral site than sorafenib | – |
| > 100 | 49.9 ± 17.9 | > 100 | 20 | 25 ± 2 | 34 ± 17 | 20 ± 7 | Nc1ccc(Oc2ccnc(C(=O)NCCc3ccccc3)c2)cc1 [Compound 3e, 4-(4-Aminophenoxy)-N-phenylethylpyridine-2-carboxamide] | 42 ± 3 | 63 ± 8.9 | > 100 | 39 ± 3 | – | IC50 [6]: 20 to 90 µM |
| – | – | – | 42 ± 9 | 29 ± 4 | 29 ± 13 | 37 ± 6 | Nc1ccc(Oc2ccnc(C(=O)NCc3ccccc3)c2)cc1 [Compound 3d, 4-(4-Aminophenoxy)-N-benzylpyridine-2-carboxamide] | 94 ± 2.2 | 66 ± 3.1 | > 100 | 94 ± 1.9 | – | IC50 [6]: 20 to 90 µM |
| > 100 | 92.1 ± 43 | 70.6 ± 27.6 | > 100 | ≥ 100 | ≥ 100 | ≥ 100 | Nc1ccc(Oc2ccnc(C(=O)NCC3CCCCC3)c2)cc1 [Compound 3c, 4-(4-Aminophenoxy)-N-cyclohexylmethylpyridine-2-carboxamide] | > 100 | 163 ± 147 | > 100 | > 100 | – | melting point: 135 to 137 °C |
